Measurements as given in PubChem BioAssay (NCI).
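Five concentrations, 48 hours, 96-well plates. The concentration for full growth arrest is given as TGI.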

Columns and labels:
Test in all cases: growth of human tumour cells (NCI), 48 h
U251 CNS = test system: U251 CNS
DLD-1 colon = test system: DLD-1 colon
M14 melanoma = test system: M14 melanoma
SK-MEL-2 melanoma = test system: SK-MEL-2 melanoma
KM20L2 colon = test system: KM20L2 colon
ACHN renal = test system: ACHN renal
SW-620 colon = test system: SW-620 colon
MALME-3M melanoma = test system: MALME-3M melanoma
CAKI-1 renal = test system: CAKI-1 renal
NCI-H460 lung = test system: NCI-H460 lung
IGROV1 ovarian = test system: IGROV1 ovarian
HCT-15 colon = test system: HCT-15 colon
NCI-H226 lung = test system: NCI-H226 lung
DMS 273 small cell lung = test system: DMS 273 small cell lung
K-562 leukemia = test system: K-562 leukemia
M19-MEL melanoma = test system: M19-MEL melanoma
HCT-116 colon = test system: HCT-116 colon
SK-MEL-28 melanoma = test system: SK-MEL-28 melanoma
LOX IMVI melanoma = test system: LOX IMVI melanoma
SF-295 CNS = test system: SF-295 CNS
NCI-H23 lung = test system: NCI-H23 lung
OVCAR-5 ovarian = test system: OVCAR-5 ovarian
OVCAR-8 ovarian = test system: OVCAR-8 ovarian
A498 renal = test system: A498 renal
HCC-2998 colon = test system: HCC-2998 colon
COLO 205 colon = test system: COLO 205 colon
HOP-18 NSCLC = test system: HOP-18 NSCLC
UACC-257 melanoma = test system: UACC-257 melanoma
SNB-75 CNS = test system: SNB-75 CNS
KM12 colon = test system: KM12 colon
SNB-78 CNS = test system: SNB-78 CNS
SK-MEL-5 melanoma = test system: SK-MEL-5 melanoma
SNB-19 CNS = test system: SNB-19 CNS
SF-539 CNS = test system: SF-539 CNS
SK-OV-3 ovarian = test system: SK-OV-3 ovarian
DMS 114 small cell lung = test system: DMS 114 small cell lung
EKVX NSCLC = test system: EKVX NSCLC
TK-10 renal = test system: TK-10 renal
OVCAR-4 ovarian = test system: OVCAR-4 ovarian
HT29 colon = test system: HT29 colon
OVCAR-3 ovarian = test system: OVCAR-3 ovarian
UO-31 renal = test system: UO-31 renal
SF-268 CNS = test system: SF-268 CNS
HOP-62 NSCLC = test system: HOP-62 NSCLC
CCRF-CEM leukemia = test system: CCRF-CEM leukemia
XF 498 CNS = test system: XF 498 CNS
786-0 renal = test system: 786-0 renal
A549 NSCLC = test system: A549 NSCLC
SN12C renal = test system: SN12C renal
UACC-62 melanoma = test system: UACC-62 melanoma
RPMI-8226 leukemia = test system: RPMI-8226 leukemia
LXFL 529 NSCLC = test system: LXFL 529 NSCLC
NCI-H522 lung = test system: NCI-H522 lung
RXF 393 renal = test system: RXF 393 renal
MOLT-4 leukemia = test system: MOLT-4 leukemia
HOP-92 NSCLC = test system: HOP-92 NSCLC
SR leukemia = test system: SR leukemia
HL-60(TB) leukemia = test system: HL-60(TB) leukemia
MDA-MB-231 breast = test system: MDA-MB-231 breast
T-47D breast = test system: T-47D breast
MDA-N = test system: MDA-N
HS 578T breast = test system: HS 578T breast
NCI/ADR-RES ovarian = test system: NCI/ADR-RES ovarian
BT-549 breast = test system: BT-549 breast
MCF7 breast = test system: MCF7 breast
DU-145 prostate = test system: DU-145 prostate
MDA-MB-435 = test system: MDA-MB-435
PC-3 prostate = test system: PC-3 prostate

Measured: TGI

OC(c1ccccc1)(c1ccccc1)c1cccnc1
not listed: LXFL 529 NSCLC | NCI-H522 lung | RXF 393 renal | MOLT-4 leukemia | HOP-92 NSCLC | SR leukemia | HL-60(TB) leukemia | MDA-MB-231 breast | T-47D breast | MDA-N | HS 578T breast | NCI/ADR-RES ovarian | BT-549 breast | MCF7 breast | DU-145 prostate | MDA-MB-435 | PC-3 prostate
> 100 µM: all other assays above

[O-]c1on[n+]2c1c(Nc1ccc(Cl)cc1)nc1ccccc12
not listed: SK-MEL-2 melanoma | MALME-3M melanoma | CAKI-1 renal | HCT-15 colon | NCI-H226 lung | HOP-18 NSCLC | HOP-62 NSCLC | MDA-MB-231 breast | T-47D breast | MDA-N | HS 578T breast | NCI/ADR-RES ovarian | BT-549 breast | MCF7 breast | DU-145 prostate | MDA-MB-435 | PC-3 prostate
> 100 µM: all other assays above

O=c1cccccc1NCCCCCCCCCNc1cccccc1=O
24.9 µM: MOLT-4 leukemia
35.7 µM: HOP-62 NSCLC
34.7 µM: OVCAR-8 ovarian
19.1 µM: LOX IMVI melanoma | DMS 114 small cell lung
88.5 µM: SNB-19 CNS
25.7 µM: M14 melanoma
28.7 µM: UACC-62 melanoma
99.8 µM: SK-OV-3 ovarian
24.4 µM: LXFL 529 NSCLC
33.3 µM: KM12 colon
26.2 µM: COLO 205 colon
74.6 µM: NCI-H23 lung
44.3 µM: SF-295 CNS
24.5 µM: HL-60(TB) leukemia
45.7 µM: SF-268 CNS | SR leukemia
41.6 µM: UO-31 renal | HOP-92 NSCLC
39.9 µM: MALME-3M melanoma | HCT-15 colon
43.4 µM: NCI-H226 lung
52.9 µM: NCI-H522 lung
21.3 µM: SF-539 CNS
79.3 µM: RXF 393 renal
22.3 µM: RPMI-8226 leukemia
65 µM: HT29 colon
7.35 µM: UACC-257 melanoma
46.8 µM: SK-MEL-2 melanoma
62.9 µM: SNB-75 CNS
88.9 µM: 786-0 renal
51 µM: M19-MEL melanoma
77.5 µM: KM20L2 colon
62.2 µM: SN12C renal
17.4 µM: HCT-116 colon
> 100 µM: DLD-1 colon | CAKI-1 renal | IGROV1 ovarian | OVCAR-4 ovarian | CCRF-CEM leukemia | A549 NSCLC
68.2 µM: SW-620 colon
58 µM: OVCAR-5 ovarian
27.7 µM: NCI-H460 lung
37.5 µM: OVCAR-3 ovarian
36.2 µM: ACHN renal
26.9 µM: K-562 leukemia
32.7 µM: EKVX NSCLC
30 µM: U251 CNS
78.7 µM: HCC-2998 colon
82.4 µM: SNB-78 CNS
32.6 µM: DMS 273 small cell lung
20 µM: XF 498 CNS

Cc1cccc(C)c1NC(=O)CCCC(=O)C1CC(=O)CCC1=O (stereo not given)
not listed: M14 melanoma | SK-MEL-2 melanoma | SW-620 colon | CAKI-1 renal | NCI-H460 lung | IGROV1 ovarian | DMS 273 small cell lung | K-562 leukemia | LOX IMVI melanoma | SF-295 CNS | OVCAR-5 ovarian | COLO 205 colon | HOP-18 NSCLC | KM12 colon | SK-MEL-5 melanoma | TK-10 renal | CCRF-CEM leukemia | A549 NSCLC | LXFL 529 NSCLC | HOP-92 NSCLC | HL-60(TB) leukemia | MDA-MB-231 breast | T-47D breast | MDA-N | HS 578T breast | NCI/ADR-RES ovarian | BT-549 breast | MCF7 breast | DU-145 prostate | MDA-MB-435 | PC-3 prostate
> 100 µM: all other assays above

COC1CC(n2cnc3c(N)ncnc32)OC1CO (stereo not given)
not listed: LOX IMVI melanoma | A498 renal | HOP-18 NSCLC | SNB-78 CNS | SK-OV-3 ovarian | EKVX NSCLC | SN12C renal | RXF 393 renal | MDA-MB-231 breast | T-47D breast | MDA-N | HS 578T breast | NCI/ADR-RES ovarian | BT-549 breast | MCF7 breast | DU-145 prostate | MDA-MB-435 | PC-3 prostate
> 100 µM: all other assays above

FC(F)(F)C12C34C=CC5(CCC6(C=CC1(CC3)O6)C52C(F)(F)F)O4 (stereo not given)
not listed: DLD-1 colon | M14 melanoma | HCT-15 colon | SNB-75 CNS | SK-MEL-5 melanoma | DMS 114 small cell lung | UO-31 renal | UACC-62 melanoma | RPMI-8226 leukemia | MDA-MB-231 breast | T-47D breast | MDA-N | HS 578T breast | NCI/ADR-RES ovarian | BT-549 breast | MCF7 breast | DU-145 prostate | MDA-MB-435 | PC-3 prostate
> 100 µM: all other assays above

CCCCCCCC(=O)N/N=C/c1ccc(Sc2nccn2C)c([N+](=O)[O-])c1
25.8 µM: UACC-62 melanoma
37 µM: T-47D breast
22.6 µM: LOX IMVI melanoma
33.2 µM: PC-3 prostate
15 µM: HOP-92 NSCLC
27.5 µM: COLO 205 colon
58.3 µM: OVCAR-4 ovarian
32.5 µM: NCI-H226 lung
32 µM: MDA-N | A498 renal | SF-268 CNS
32.2 µM: U251 CNS
27.7 µM: M14 melanoma
28.5 µM: HCT-116 colon | MDA-MB-435
23.4 µM: HT29 colon
34.2 µM: BT-549 breast
29.3 µM: HCT-15 colon
39 µM: SNB-75 CNS
87 µM: SNB-19 CNS
33.9 µM: SF-295 CNS
22.7 µM: UO-31 renal
31 µM: SK-MEL-2 melanoma
46.7 µM: DU-145 prostate | RPMI-8226 leukemia
32.4 µM: 786-0 renal
27.3 µM: SK-MEL-28 melanoma
42.8 µM: EKVX NSCLC
30.1 µM: MDA-MB-231 breast
82.6 µM: K-562 leukemia
28.4 µM: NCI-H522 lung
24.7 µM: IGROV1 ovarian
72.1 µM: CAKI-1 renal
42.9 µM: NCI-H23 lung
83.2 µM: TK-10 renal
55.6 µM: SR leukemia
75.2 µM: ACHN renal
34 µM: SF-539 CNS
39.3 µM: HS 578T breast
30.5 µM: NCI-H460 lung
> 100 µM: SK-OV-3 ovarian | A549 NSCLC
26.1 µM: SK-MEL-5 melanoma
32.1 µM: KM12 colon
39.2 µM: OVCAR-5 ovarian
62.5 µM: MOLT-4 leukemia
26.9 µM: UACC-257 melanoma
32.8 µM: SW-620 colon
0.772 µM: HL-60(TB) leukemia
36.4 µM: OVCAR-3 ovarian | HOP-62 NSCLC
48.9 µM: NCI/ADR-RES ovarian
17.2 µM: CCRF-CEM leukemia
30.4 µM: RXF 393 renal
38.2 µM: MCF7 breast
29 µM: MALME-3M melanoma
37.4 µM: OVCAR-8 ovarian
28.9 µM: SN12C renal
26.5 µM: HCC-2998 colon

COc1ccc(CSc2nc3ccccc3nc2-c2cccs2)cc1
76.3 µM: CCRF-CEM leukemia
> 100 µM: U251 CNS | M14 melanoma | ACHN renal | MALME-3M melanoma | DMS 273 small cell lung | K-562 leukemia | HCT-116 colon | SK-MEL-28 melanoma | SF-295 CNS | NCI-H23 lung | OVCAR-8 ovarian | COLO 205 colon | HOP-18 NSCLC | UACC-257 melanoma | SNB-75 CNS | SNB-78 CNS | SNB-19 CNS | SF-539 CNS | SK-OV-3 ovarian | DMS 114 small cell lung | EKVX NSCLC | OVCAR-4 ovarian | HT29 colon | OVCAR-3 ovarian | UO-31 renal | SF-268 CNS | XF 498 CNS | 786-0 renal | MOLT-4 leukemia | A549 NSCLC | HOP-92 NSCLC | SN12C renal | HL-60(TB) leukemia | RPMI-8226 leukemia
